Laboratory results published in patent US12275706B2, “Malate salt of N-(4-{[6,7-bis(methyloxy) quinolin-4-yl]oxy}phenyl)-N′-(4-fluorophenyl)cyclopropane-1,1-dicarboxamide, and crystalline forms thereof for the treatment of cancer” (Exelixis, Inc., priority 2009, dated 2025).
Each block holds one compound with its values, some of them ahead of it.

Columns and labels:
[1] = Salt screen: salt formation, crystallinity, hygroscopicity and other data; settings: Table 1
[2] = Moisture sorption (water uptake); assay type: physicochemical
Experimental: (§1) The amount of water taken up was calculated at about 0.60 wt % at 90% RH. […] The amount of water associated with this salt was calculated at about 0.5 wt % by Karl Fischer analysis and correlates with TGA and GVS analysis.
Moisture sorption isotherms were collected in a VTI SGA-100 Symmetric Vapor Analyzer using approximately 10 mg of sample. The sample was dried at 60° C. until the loss rate of 0.0005 wt %/min was obtained for 10 minutes. The sample was tested at 25° C. and 3 or 4, 5, 15, 25, 35, 45, 50, 65, 75, 85, and 95% RH. Equilibration at each RH was reached when the rate of 0.0003 wt %/min for 35 minutes was achieved or a maximum of 600 minutes.

[3] = Water solubility of free base and salts (salt screen); settings: for Solubility: water, 10 mg solids per mL water
[4] = Solid state stability on exposure to high humidity and temperature; assay type: physicochemical
Description: Other solid state properties which may be used to characterize the crystalline N-1 forms of Compounds (I) and (II) are shown in the figures and discussed in the examples below.

[5] = Karl Fischer water analysis; assay type: physicochemical; settings: correlates with TGA and GVS
Experimental: as §1

[6] = DSC/TGA thermal stability; assay type: physicochemical
Experimental: as §1
The TGA measurements were performed in a TA Instruments™ model Q500 or 2950, employing an open pan setup. The sample (about 10-30 mg) was placed in a platinum pan previously tared. The weight of the sample was measured accurately and recorded to a thousand of a milligram by the instrument. The furnace was purged with nitrogen gas at 100mL/min. Data were collected between room temperature and 300° C. at 10° C./min heating rate.
DSC measurements were performed in a TA Instruments™ model Q2000, Q1000 or 2920, employing an open pan setup. The sample (about 2-6 mg) was weighed in an aluminum pan and recorded accurately recorded to a hundredth of a milligram, and transferred to the DSC. The instrument was purged with nitrogen gas at 50 mL/min. Data were collected between room temperature and 300° C. at 10° C./min heating rate. The plot was made with the endothermic peaks pointing down.

[7] = Storage stability at controlled temperature/relative humidity; assay type: physicochemical
physchem = settings: water, thermodynamic from solid

Compound: C1=Cc2cccc(OC[C@H]3CNCCO3)c2C1.O=S(=O)(O)c1ccccc1 [Benzenesulfonate]
other data relating to the free base and each salt (salt formation, crystallinity, hygroscopicity, remarks) [1]: Crystalline Salt; possible sulfonic acid formation

Compound: CC(=O)O [Acetate]
other data relating to the free base and each salt (salt formation, crystallinity, hygroscopicity, remarks) [1]: no salt formation; mixture of free base and acid

Compound: Cl [Chloride]
other data relating to the free base and each salt (salt formation, crystallinity, hygroscopicity, remarks) [1]: Crystalline but Hygroscopic; possible hydrate
moisture sensitivity, phase ([4]; high humidity (75% humidity) and high temperature (40° C.)): undesirable moisture sensitivity, changing phase

Compound: Tosylate
other data relating to the free base and each salt (salt formation, crystallinity, hygroscopicity, remarks) [1]: Crystalline salt, low solubility
Solubility [3]: 7 µg/mL

Compound: Benzoate
other data relating to the free base and each salt (salt formation, crystallinity, hygroscopicity, remarks) [1]: no salt formation; mixture of free base and acid

More lines, main results first:

other data relating to the free base and each salt (salt formation, crystallinity, hygroscopicity, remarks) [1]: Crystalline but Hygroscopic.
weight gain due to absorption of H2O ([2]; highest among the salts tested): 8%
Solubility [3]: 26 µg/mL
Compound: Phosphate

other data relating to the free base and each salt (salt formation, crystallinity, hygroscopicity, remarks) [1]: Crystalline salt, low solubility
Compound: Malonate

other data relating to the free base and each salt (salt formation, crystallinity, hygroscopicity, remarks) [1]: Crystalline salt, low solubility
Compound: O=S(=O)(O)O [Sulfate]

amount of water associated with the salt [5]: about 0.5 wt %
solvent losses (DSC/TGA) [6]: No solvent losses were observed
stable up to (DSC/TGA) [6]: up to 185 °C
uptake of water, reversibility [2]: reversible with a slight hysteresis
amount of water taken up ([2]; at 90% RH): about 0.60 wt %
solid state phase and degree of crystallinity ([4]; 75% RH at 40° C. for 1 week): remained unchanged
Solubility [3]: 59 µg/mL
Compound: COc1cc2nccc(Oc3ccc(NC(=O)C4(C(=O)Nc5ccc(F)cc5)CC4)cc3)c2cc1OC.O=C(O)C[C@H](O)C(=O)O [Compound (I), N-(4-{[6,7-bis(methyloxy)quinolin-4-yl]oxy}phenyl)-N′-(4-fluorophenyl)cyclopropane-1,1-dicarboxamide, (L) Malate Salt]
change in assay, purity, moisture and dissolution ([7]; 25° C./60% relative humidity (RH)): no change in assay, purity, moisture and dissolution
change in assay, purity, moisture and dissolution ([7]; 40° C./60% RH): no change in assay, purity, moisture and dissolution
solubility (in words) [3]: sufficient solubility for use in a pharmaceutical composition

other data relating to the free base and each salt (salt formation, crystallinity, hygroscopicity, remarks) [1]: Amorphous, salt
Compound: L-Lactate

other data relating to the free base and each salt (salt formation, crystallinity, hygroscopicity, remarks) [1]: very low solubility
Solubility (physchem): < 1 µg/mL
Compound: COc1cc2nccc(Oc3ccc(NC(=O)C4(C(=O)Nc5ccc(F)cc5)CC4)cc3)c2cc1OC [Free base, N-(4-{[6,7-bis(methyloxy)quinolin-4-yl]oxy}phenyl)-N′-(4-fluorophenyl)cyclopropane-1,1-dicarboxamide]

other data relating to the free base and each salt (salt formation, crystallinity, hygroscopicity, remarks) [1]: Crystalline Salt, low solubility
Compound: Fumarate
